In US10239871B2, “Compounds and methods for regulating integrins” (ADHAERE PHARMACEUTICALS, INC., priority 2012, dated 2019):

How the values were obtained:
[1] = test system: MAPK signaling (pERK, pJNK) in K562 WT cells; test: Western blotting of pERK and pJNK in K562 WT cells; type: cell-based, human; conditions: absence of ligand fibrinogen
Experimental: K562 WT cells were incubated with LA1, LA2, LA15 (15 μM), or fibrinogen (200 μg) in serum-free medium for 1 hour at 37° C. Cell lysates were resolved on 4-12% NuPAGE Bis-Tris SDS-PAGE gels using MES running buffer and transferred to a polyvinylidene difluoride (PVDF) membrane (ThermoScientific) using established protocols. Membranes were incubated with a 1:1,000 dilution of the anti-phospho-protein antibodies (anti phospho-p44/42 MAPK (pERK1/2) antibody (Thr202/Tyr204, Cell Signaling) or anti-phospho-SAPK/JNK (pJNK) antibody (Thr183/Tyr185, Cell Signaling #81E11)), or with an antibody against either total ERK1/2 (p44/42 MARK (Erk1/2), Cell Signaling #137F5) or total JNK (SAPK/JNK, Cell Signaling #56G8) and developed according to the manufacturer's instructions (ThermoScientific). Proteins were quantified by densitometry using ImageJ software. […]
Second, an effect of integrin ligation, macro clustering and redistribution in the plasma membrane is the triggering of outside-in intracellular signaling in cells via various MAPKs. […] In FIGS. 6A-6B, immunoblot results from two independent experiments were quantified using ImageJ software and ratio of phosphorylated protein to total protein was determined. Histograms showing this quantitation for each set are also shown. […] In FIGS. 6C-6D, immunoblot results from two independent experiments were quantified and are also shown, as in 6A and 6B.

Cl66 cells = test: Orthotopic Cl66 mammary adenocarcinoma tumor growth, with or without Taxol; type: in vivo; conditions: BALB/c mice
Experimental: The syngeneic murine mammary adenocarcinoma cell line Cl66 (moderately metastatic and is related to the highly metastatic 4T1 cell line) was orthotopically introduced in Balb/c animals, by injecting ˜5×10^5 Cl66 cells under the left mammary fat pad of WT BALB/c mice (approx. 8-10 weeks old). The tumor size was measured using calipers every other day until the end of the experiment (approx. 5 weeks). 7-days post implantation, the tumors in all animals became palpable, with an average size of ˜100 mm3. At that time, animals in each group were treated as described. LA1 was administered daily for the first two weeks and then every other day until the end of the experiment. Animals in Group 1 received Saline injections, as control. […] It can also enhance the efficacy of traditional chemotherapy in various cancers, including breast cancer, to produce a synergistic response to the treatment. It can also reduce the incidence and the size of metastases.

SD rats = test: Subacute toxicity assessment in rats; type: in vivo, rat
Experimental: LA1 is non-toxic in vivo. A subacute toxicity assessment of LA1 in rats was performed.
LA1 had no effect on the daily food intake or growth.
Next, a subacute toxicity assessment was performed of LA1 in rats in the Comparative Pathology core. […] LA1 had no effect on the daily food intake or growth.

neutrophil chemotaxis = conditions: previously shown [55]; cited from earlier work
CD11b/CD18 = CD11b/CD18 (Homo sapiens, UniProt P11215); test: Flow chamber assay (adhesion under wall shear stress); type: cell-based; parameters: expressed in transfected cells; host or cells: 293T cells, transient transfection; conditions: 25 μM LA1, unlike Mn2+
Experimental: The flow chamber assay was performed as described in literature (Chen, J. F., Salas, A. & Springer, T. A. Bistable regulation of integrin adhesiveness by a bipolar metal ion cluster. Nat. Struct. Biol. 10, 995-1001 (2003)). A polystyrene Petri dish was coated with a 5 mm diameter, 20 μL spot of 20 μg/mL purified h-ICAM-1/Fc (R&D) or 20 μg/mL Fibrinogen in coating buffer (PBS, 10 mM NaHCO3, pH 9.0) for 1 hour at 37° C., followed by 2% BSA in coating buffer for 1 hour at 37° C. to block nonspecific binding sites. Transient transfected 293T cells were washed twice with wash buffer (20 mM Hepes, 150 mM NaCl, pH 7.4, 5 mM EDTA/0.5% BSA), subsequently once with HBS containing 1 mM Ca^2+ and 1 mM Mg^2+ (HBS^++), and finally resuspended at the concentration of 5×10^6/mL in HBS^++ ([…], 0.5% BSA) and kept on ice. Cells were incubated in 2% DMSO with or without 25 μM LA1 at 37° C. for 30 minutes. And subsequently infused in the flow chamber using a Harvard apparatus programmable syringe pump. Cells were allowed to settle down for 5 minutes, and accumulate for 30 seconds at 0.3 dyn/cm^2 and 10 seconds at 0.4 dyn/cm^2. […] The number of cells remaining abound at the end of each 10-sec interval were determined. Rolling velocity at each shear stress was calculated from the average distance traveled by rolling cells in 3 seconds. […]

With `O=C(O)c1ccc(-c2ccc(/C=C3\SC(=S)N(Cc4ccccc4)C3=O)o2)cc1` [LA1] the “phosphorylated ERK (pERK) and phosphorylated JNK (pJNK)” value [1] was “did not induce any significant pERK or pJNK”, the “rate of tumor growth, co-treatment with Taxol” value (Cl66 cells) was “highest reduction in the rate of tumor growth” and the “rate of tumor growth, single agent” value (Cl66 cells; vs vehicle) was “significant reduction in the rate of tumor growth”. For the same compound, the Haematological constants (SD rats; IP ~3 mg/kg/d for 21 d) was “on par with those of controls”, the “biochemical measurements in serum and liver (enzyme levels, serum constituents)” value (SD rats; IP ~3 mg/kg/d for 21 d) was “no appreciable changes” and the “daily food intake or growth” value (SD rats; IP ~3 mg/kg/d for 21 d) was “no effect”. The “overt toxicity or mortality” value (SD rats; IP ~3 mg/kg/d for 21 d, SD rats of both sexes) was “failed to induce any overt toxicity or mortality”, the “relative organ weights of vital organs and their histoarchitecture” value (SD rats; autopsy, lung, heart, spleen, liver, kidney) was “no significant alterations” and the neutrophil chemotaxis (neutrophil chemotaxis) was “impairs neutrophil chemotaxis”. The “adhesive behavior of CD11b/CD18 transfectants under wall shear stress (conformation induced)” value (CD11b/CD18) was “induces priming of CD11b/CD18 and converts it into intermediate conformation”.
